From patent US6174855A, “Pharmaceutical compositions comprising thrombin inhibitors and their use in the control of wound healing processes” (AstraZeneca AB, priority 1996, dated 2001)
Several values for one entry are separate records, joined by “and”; a condition that tells them apart may be missing. Equal entries are not always repeated. Values belong to the compound of their own block, whether it stands above or below them.

What was measured:
[1] = Bleeding observations during inogatran minipump infusion; type: in vivo, rat; details: day 7
Excerpt: (§1) The serosal surfaces of the stomachs of adult, anaesthetised rats were exposed in an area 7 mm diameter to 80% acetic acid over 60 seconds and then rinsed with buffered saline.

[2] = Plasma concentration of inogatran during intraperitoneal minipump infusion; type: in vivo, rat; details: for Mean Plasma Conc.: two rats
[3] = system: fibrin-related adhesions between the stomach and the liver, the intestines and the omentum; assay: Acetic acid injury to the serosal surface of the rat stomach: formation of adhesions; type: in vivo; details: for Adherences score: day 7
Procedure: The serosal surface of the stomach of an adult anaesthetised rat was exposed in an area of 7 mm diameter to 80% acetic acid over 60 seconds. After rinsing with buffered saline solution, an osmotic minipump (Alza 2001, volume about 220 μL; pumping rate about 1 μL/h; Alza Corp.; Palo Alto, Calif., USA; prefilled with a solution of the thrombin inhibitor melagatran, 2-100 μg/mL) was implanted into the peritoneal cavity, with the outlet of the pump kept open, and delivered its content into the abdominal cavity. The wounded area was covered by a chitosan membrane or, in an alternative experiment, a gel, having a diameter several millimeters larger than that of the injured area.
The serosal surface of the stomach of an adult, anaesthetised rat was exposed in an area of 7 mm diameter to 80% acetic acid over 60 seconds. After rinsing with buffered saline, the wounded area was covered by a chitosan membrane or, in an alternative experiment, a gel, having a diameter several millimeters larger than the injured area. An osmotic minipump (Alza 2001, volume about 220 μL; pumping rate about 1 μL/h; Alza Corp.; Palo Alto, Calif., USA; prefilled with a solution of the thrombin inhibitor melagatran, 2-100 μg/mL) was implanted subcutaneously, with the outlet of the pump kept open, delivering its content into the adjacent tissue. […]

[4] = Plasma concentration of inogatran during intraperitoneal minipump infusion; type: in vivo, rat
Excerpt: as §1

[5] = system: adhesions between injured area and adjacent muscles, muscle fascia, vessels, nerves and skin; assay: Surgical removal of thigh muscle fascia in rat: adhesions inspected after 10 days; type: in vivo; details: subcutaneous minipump 0.2×100μg/mL, versus untreated animals
Excerpt: An incision was made in the thigh through the skin into the muscle tissue in an anaesthetised adult rat, and the muscle fascia was surgically removed in a defined area (about 10×15 mm). The wound was sutured, and eventually opened for inspection after 10 days. Numerous adhesions were recognized, and the presence of granulation tissue were noticed to connect and lock the injured area to adjacent muscles, muscle fascia, vessels and nerves as well as to the skin.
An incision was made in the thigh through the skin into the muscle tissue in an anaesthetised adult rat and the muscle fascia was surgically removed in a defined area (about 10×15 mm). The muscle fascia was covered by a chitosan membrane or, in an alternative experiment, a gel, to which was connected a tube from an osmotic minipump, which had been implanted subcutaneously (Alza 2001, total volume about 220 μL; pumping rate about 1 μL/h; Alza Corp.; Palo Alto, Calif., USA; prefilled with a solution of the thrombin inhibitor melagatran, 0.2×100μg/mL). The wound was then sutured, and eventually opened and inspected after 10 days.

[6] = infusion rate 1*10 μL/h, 658 μg/h
[7] = infusion rate 2*10 μL/h, 1317 μg/h

bleeding observation [1, 6]: Minor Tendency to Bleed
bleeding observation [1, 7]: Diffuse Bleeding
Mean Plasma Conc. ([2]; infusion rate 1*1 μL/h, 66 μg/h, day 7): 180 nM
Mean Plasma Conc. ([2]; infusion rate 1*10 μL/h, 658 μg/h, day 7): 1840 nM
Plasma Conc. ([2]; infusion rate 2*1 μL/h, 132 μg/h (269 and 248 μg/kg/h), day 7): 240 nM and 370 nM
Mean Plasma Conc. ([2]; infusion rate 2*1 μL/h, 132 μg/h, day 7): 310 nM
Plasma Conc. ([2]; infusion rate 2*10 μL/h, 1317 μg/h (2761 μg/kg/h), day 1): 4440 nM
Plasma Conc. ([2]; infusion rate 2*10 μL/h, 1317 μg/h (2761 μg/kg/h), day 2): 2820 nM
Plasma Conc. ([2]; infusion rate 2*10 μL/h, 1317 μg/h (2761 μg/kg/h), day 7): 5560 nM
Plasma Conc. ([4]; infusion rate 1*1 μL/h, 66 μg/h (124 and 142 μg/kg/h), day 1): 580 nM and 610 nM
Plasma Conc. ([4]; infusion rate 1*1 μL/h, 66 μg/h (124 and 142 μg/kg/h), day 7): 170 nM and 190 nM
Plasma Conc. ([4]; infusion rate 1*10 μL/h, 658 μg/h (1327 and 1351 μg/kg/h), day 7): 1880 nM and 1790 nM
Plasma Conc. ([4]; infusion rate 2*1 μL/h, 132 μg/h (269 and 248 μg/kg/h), day 1): 470 nM and 460 nM
Plasma Conc. ([4]; infusion rate 4*1 μL/h, 264 μg/h (588 and 558 μg/kg/h), day 1): 1270 nM and 810 nM
Plasma Conc. ([4]; infusion rate 4*1 μL/h, 264 μg/h (588 and 558 μg/kg/h), day 2): 470 nM and 890 nM
Plasma Conc. ([4]; infusion rate 4*1 μL/h, 264 μg/h (588 and 558 μg/kg/h), day 7): 570 nM and 870 nM
Mean Plasma Conc. ([4]; infusion rate 4*1 μL/h, 264 μg/h, two rats, day 7): 720 nM
Compound: N=C(N)NCCCNC(=O)[C@@H]1CCCCN1C(=O)[C@@H](CC1CCCCC1)NCC(=O)O [inogatran, HOOC--CH2 --(R)Cha-Pic-Nag-H]
Adherences score ([3]; infusion rate 1*1 μL/h, 66 μg/h): 3 and 4
Adherences score [3, 6]: 0
Adherences score ([3]; infusion rate 2*1 μL/h, 132 μg/h): 2
Adherences score [3, 7]: 0
formation of adhesions, dose dependence ([3]; intraperitoneal minipump(s) 65.86 μg/μL, 1 to 20 μL/h, for a week): prevented in a dose-response related manner

Compound: N=C(N)c1ccc(CNC(=O)[C@@H]2CCN2C(=O)[C@H](NCC(=O)O)C2CCCCC2)cc1 [melagatran, HOOC--CH2 --(R)Cgl-Aze-Pab-H]
bridging tissue (adhesions) between the stomach and the liver, the intestines and the omentum ([3]; 100 μL of 100-500 μg/mL solution dripped daily onto chitosan membrane or gel, after 2 to 5 days): absolutely no bridging tissue
fibrin network or strands of granulation tissue between the stomach and the liver, the intestines and the omentum ([3]; intraperitoneal minipump 2-100 μg/mL, outlet connected to chitosan membrane or gel, up to 10 days): No fibrin network or strands of granulation tissue could be detected
fibrin network or strands of granulation tissue between the stomach and the liver, the intestines and the omentum ([3]; intraperitoneal minipump 2-100 μg/mL, outlet open into abdominal cavity, wound covered by chitosan membrane or gel, up to 10 days): No fibrin network, nor any strands of granulation tissue, could be detected
adhesions between the stomach and the liver, the intestines and the omentum ([3]; minipump in peritoneal cavity, 2-100 μg/mL, about 1 μL/h, no polysaccharide, up to 10 days): only scattered, delicate adhesions
fibrin network or strands of granulation tissue between the stomach and the liver, the intestines and the omentum ([3]; subcutaneous minipump 2-100 μg/mL, outlet open, wound covered by chitosan membrane or gel, up to 14 days): No fibrin network, nor any strands of granulation tissue, could be detected
severity and dimensions of the adhesions formed between adjacent structures ([5]; tube connected to chitosan membrane or gel over the muscle fascia): strikingly reduced
granulation tissue connecting and locking the injured area to adjacent structures ([5]; tube connected to chitosan membrane or gel): largely not connecting

Compound: hirudin
fibrin network or strands of granulation tissue between the stomach and the liver, the intestines and the omentum ([3]; intraperitoneal minipump for a week, wound covered by hyaluronan or chitosan membrane, up to 10 days): No fibrin network or strands of granulation tissue could be detected

Compound: streptokinase: fibrinolytic agent, purchased from Sigma Chemical Co
fibrin-platelet network or strands of granulation tissue between the stomach and the liver, the intestines and the omentum ([3]; intraperitoneal minipump, outlet connected to surface of chitosan membrane (or gel), up to 10 days): No fibrin-platelet network nor any strands of granulation tissue could be detected
fibrin network or strands of newly formed granulation tissue connecting the stomach with the liver, the intestines and the omentum ([3]; minipump in abdominal cavity, outlet free and open, wound covered by chitosan membrane or gel, up to 10 days): No fibrin network, nor any strands of newly formed granulation tissue, could be detected
